In patent US7407752B2, “Oligonucleotide complexes for use as anti-viral therapeutics” (priority 2003, dated 2008):
Values joined by “and” are separate entries in the source; they are usually repeats but may differ in a detail not shown here. Equal entries are not always repeated.

Tests used:
[1] = intravenous; cited from earlier work
[2] = Systemic (intraperitoneal) delivery of Cy5-TFO-3 to mouse TG, fluorescence imaging; type: in vivo, Balb/c mice; conditions: 167 mcg intraperitoneal, 6 or 24 hours after injection
Experimental: Cy5-labeled TFO-3 (SEQ ID 2) was then synthesized and HPLC purified. 167 mcg of Cy5-TFO-3 (SEQ ID 2) was then systemically administered via an intraperitoneal injection into uninfected and latently infected Balb/c mice. The animals were sacrificed and dissected 6 or 24 hours after injection and the TG's imaged under a red laser light source (680 nm). An uninjected, uninfected mouse was also imaged as a control for autofluorescence (nil). Fluorescence of Cy5 was detectable in the TG's of Cy5-labeled TFO-3 (SEQ ID 2) treated mice.

HSV-1 = HSV-1 plaque reduction on Vero cells after incubation with TFO and ultraviolet-A radiation; conditions: for viral titer as percent of the unirradiated virus only control: 1 μM TFO
Experimental: Viral titers were determined by plaque counts on Vero cell monolayers.
3000 PFU/ml of HSV-1 were incubated with 1 μM TFO-3 (SEQ ID 2) at room temperature, N=5 replications per group. Viral killing (as measured by plaque-reduction) was effected by exposing the mixture to ultraviolet-A radiation for 0, 20 and 40 minutes at room temperature. HSV-1 titers were determined by plaque assay on Vero cells. […] The results were calculated as a percent of the unirradiated (0 min.) “virus only” control titers±SEM. Statistical comparisons were made between the “virus only” and “virus+TFO-3 (SEQ ID 2)” groups at each time point using an unpaired two-tailed Student's T-Test.
3000 PFU/ml of HSV-1 was incubated with 1 μM TFO-3 (SEQ ID 2) or a (scrambled) control oligonucleotide. Viral killing was affected by exposing the mixture to ultraviolet-A radiation for 40 min. Results are expressed as percent of the “virus only” control titers±SEM. Statistical comparisons were made to the “virus only” group using the two-tailed Student's T-Test.
HSV-1 was incubated with 1 μM TFO-3 (SEQ ID 2) with and without exposure to ultraviolet-A radiation for 40 minutes at room temperature. Results are expressed as mean viral titers±standard errors. Statistical comparisons were made using the two-tailed Student's T-Test.
All the groups were exposed to ultraviolet-A radiation for 40 minutes at room temperature. Results are expressed as mean viral titers ±standard error of the mean. Statistical comparisons were made using the two-tailed Mann-Whitney test for non-parametric data.

[3] = test system: parent (control) reporter construct pGL3; test: Luciferase reporter transcription inhibition, parent construct pGL3 in HEK-293; type: cell-based, human; conditions: HEK-293, 1 or 10 μM TFO, 24 hours, construct lacking HSV-1 target sequence
TG neurons [4] = test: Ex vivo delivery of TFO-3 to latently infected mouse TG; conditions: 42 micromolar, 1.5 hrs ex vivo
Experimental: Ex vivo delivery of TFOs was then performed by incubating latently infected mouse TG ex vivo for 1.5 hrs in a 42 micromolar solution of TFO-3.

[5] = test system: HSV-1 Target-3 reporter construct C2A; test: Luciferase reporter transcription inhibition, construct C2A in HEK-293; type: cell-based, human; conditions: HEK-293, 1 or 10 μM TFO, 24 hours
[6] = test system: HSV-1 LAT target sequence duplex; test: Triplex formation in vitro (native polyacrylamide gel); type: binding
Experimental: The target sequence bound by TFO-3 (SEQ ID 2) yielded a relatively clean duplex when end-labeled with ^32P and allowed to anneal to its purine complement. One fmole […] [The absolute amount of target DNA was one femtomole=1×10^−15 moles placed in solution to a concentration of 1.0 nM=1.0 nanomoles/liter] of this duplex was then incubated at 37 degrees C. with increasing concentrations of the […] in a binding buffer containing 10 mM Tris, pH 7.5, 1 mM spermine, 20 mM KCl, and 10% sucrose, according to a published protocol. The DNA complexes—single-strand, double-strand, and triplex—were separated in a native polyacrylamide gel. Triplex DNA complex formation was detected at a triplex:duplex ratio of 10:1. Triplex formation was virtually complete at a triplex:duplex ratio of 100:1, corresponding to a triplex oligonucleotide concentration of 100 nM, consistent with other reports in the literature and below that believed to be achievable in vivo.

TG neurons [7] = test: Movement of 32P-labeled TFO-3 into rat TG neuron cultures; type: cell-based
[8] = Example 9, 1 μM, UVA 40 minutes
[9] = 0.5 nM starting concentration, +20 ng/ml NGF

In the case of `Nc1nc2c(ncn2COCCO)c(=O)[nH]1` [Acyclovir], the steady-state trough concentration [1] is listed as 2 μg/ml and 8 μM.

With “Cy5-labeled TFO-3: TFO-3 (SEQ ID 2) labeled with Cy5, HPLC purified (GGGAGGAGGGAGGGAAGGAGGGGG; DNA, backbone not given here; Cy5 label attached, triplex-forming oligonucleotide, further chemistry not fully specified)” the “fluorescence of Cy5 in the TG's” value [2] was “detectable”.

In the case of “TFO-1: purine motif triplex-forming oligonucleotide binding a target site in the HSV-1 LAT domain, SEQ ID 1 (GAAGAGGGGGGGGGGAAGAAG; DNA, backbone not given here)”, the antiviral effect (HSV-1; [8]) is reported as “no measurable antiviral effect”.

With “TFO-3: purine motif triplex-forming oligonucleotide binding a target site in the HSV-1 LAT domain, SEQ ID 2 (GGGAGGAGGGAGGGAAGGAGGGGG; further chemistry not given here)” the luciferase production [3] was “did not inhibit”, the “fluorescence in TG neurons” value (TG neurons [4]) was “Intense red fluorescence” and the luciferase production [5] was “significantly inhibited”. For the same compound, the “viral titer as percent of the unirradiated virus only control” value (“viral titer as percent” for short) (HSV-1; UVA 0 min) was “approximately 80%”, the “viral titer as percent” value (HSV-1; UVA 20 min) was “approximately 50%” and the “viral titer as percent” value (HSV-1; UVA 40 min) was about 30%. For the same compound, the “percent of virus only control viral titer” value (HSV-1; Example 7, strain 17 syn+, 1 μM, UVA 40 min) was “approximately 20%”, the “viral killing (plaque-reduction) added to that of UVA alone” value (HSV-1; Example 8, 1 μM, UVA 40 minutes) was 40% and the “reduction of viral titers” value (HSV-1; [8]) was 45%. The “TFO concentration at which triplex formation is virtually complete” value ([6]; 37 degrees C., target duplex 1.0 nM) was 100 nM, the “TFO concentration at which triplex formation begins” value ([6]; HSV-1 LAT target) was 10 nM and the “average cellular oligonucleotide (32P) concentration” value (TG neurons [7]; [9]) was 95 nM. The “average oligonucleotide (32P) concentration in the supernatants” value (TG neurons [7]; [9]) was 0.44 nM and the “uptake into the neurons” value (TG neurons [7]; 0.5 nM, 2, 6 or 24 hours) was “progressively taken up”.
